Test results from patent publication US10668051B2, “Modulators of calcium release-activated calcium channel” (Rhizen Pharmaceuticals SA, priority 2009, dated 2020).
Structures can show the parent of a compound that is named as a salt.

Tests used:
[1] = test system: IL-2; test: Inhibition of cytokine release in Human Whole Blood: IL-2; type: cell-based; details: Con A + PMA, 20 h, ELISA, read-out: IC 50 Human Whole Blood IL-2
Description: 2. In Vitro Inhibition of Cytokine Release in Jurkat Cells, Human Whole Blood and Peripheral Blood Mononuclear Cells (PBMC).
Inhibition of cytokine IL-2, IL-4, IL-5 and TNF α was determined as described below. • a. Inhibition of IL-2 in Jurkat cells: Cells were incubated with desired concentrations of the inhibitor for 15 min. Cytokine release was induced by the addition of Concanavalin A (25 μg/ml)+Phorbol Myristate Acetate (50 ng/ml) for IL-2 & TNFα or with Phytohemagglutinin ([…]) for IL-4 & IL-5 and incubated at 37° C. in an atmosphere containing […]. Supernatant was collected after 20 h (IL-2 & TNFα) or 48 h (IL-4 & IL-5) for estimation of cytokines by ELISA. Data were analysed using GraphPad Prism. IC50 values for each compound were determined based on the percent inhibition due to the test compound compared to the control. • b. Inhibition of cytokine release in Human Whole Blood (HWB): Freshly collected HWB was diluted with RPMI medium (1:4.5) and added to a 96-well plate. Wells were incubated with desired concentrations of the inhibitor for 15 min. Cytokine release was induced by the addition of Concanavalin A (25 μg/ml)+Phorbol Myristate Acetate (50 ng/ml) for IL-2 & TNFα or with Phytohemagglutinin (5 μg/ml) for IL-4 & IL-5 and incubated at 37° C. in an atmosphere containing […]. Supernatant was collected after 20 h (IL-2 & TNFα) or 48 h (IL-4 & IL-5) for estimation of cytokines by ELISA. Data were analysed using GraphPad Prism. IC50 values for each compound were determined based on the percent inhibition due to the test compound compared to the control. • c. Inhibition of cytokine release in PBMC: PBMC from freshly collected HWB were isolated by density gradient using Histopaque and seeded in a 96-well plate. Cells were incubated with desired concentrations of the inhibitor for 15 min. Cytokine release was induced by the addition of Concanavalin A (25 μg/ml)+Phorbol Myristate Acetate (50 ng/ml) for IL-2 & TNFα or with Phytohemagglutinin (5 μg/ml) for IL-4 & IL-5 and incubated at 37° C. in an atmosphere containing […]. Supernatant was collected after 20 h (IL-2 & TNFα) or 48 h (IL-4 & IL-5) for estimation of cytokines by ELISA. Data were analysed using GraphPad Prism. IC50 values for each compound were determined based on the percent inhibition due to the test compound compared to the control.

[2] = target: CRAC channels (Homo sapiens (Human), UniProt Q96D31); test: In-vitro CRAC channel inhibition assay in Jurkat cells (thapsigargin-induced calcium influx); type: cell-based
Sequence of CRAC channels (Q96D31 whole entry): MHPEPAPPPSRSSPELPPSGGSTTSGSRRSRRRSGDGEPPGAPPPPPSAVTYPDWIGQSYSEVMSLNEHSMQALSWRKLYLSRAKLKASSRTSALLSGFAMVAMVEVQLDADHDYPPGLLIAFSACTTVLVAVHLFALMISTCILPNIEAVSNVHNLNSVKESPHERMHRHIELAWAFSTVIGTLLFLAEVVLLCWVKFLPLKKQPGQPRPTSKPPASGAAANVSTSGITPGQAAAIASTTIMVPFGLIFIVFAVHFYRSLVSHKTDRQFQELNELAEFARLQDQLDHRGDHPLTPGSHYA
How it was run: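 Jurkat cells given test compounds in Ca2+/Mg2+-free Hanks buffer for 15 min, then thapsigargin (1 μM final) for 15 min to deplete ER stores. IC50 from percent inhibition of thapsigargin-induced Ca2+ influx.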

Row | Molecule | IC50 [1] [nM] | inhibition at 1 µM [2] [%] | % inhibition (1 uM) [2] [%]
1 | Cc1oncc1C(=O)Nc1ccc(-n2nc(C(F)(F)F)cc2C2CC2)cc1 [Example 56, N-{4-[5-cyclopropyl-3-(trifluoromethyl)-1H-pyrazol-1-yl]phenyl}-5-methylisoxazole-4-carboxamide] | 78.4 | 100 | –
2 | O=C(Nc1ccc(-n2nc(C(F)(F)F)cc2C2CC2)cc1)c1c(Cl)cncc1Cl [Example 49, 3,5-dichloro-N-{4-[5-cyclopropyl-3-(trifluoromethyl)-1H-pyrazol-1-yl]phenyl}isonicotinamide] | 199 | 100 | –
3 | O=C(Nc1ccc(-n2nc(C(F)(F)F)cc2C2CC2)nc1)c1cccnc1 [Example 111, N-{6-[5-cyclopropyl-3-(trifluoromethyl)-1H-pyrazol-1-yl]pyridin-3-yl}nicotinamide hydrochloride] | 82.8 | 100 | –
4 | CS(=O)(=O)c1cccc(C(=O)Nc2ccc(-n3nc(C4CC4)cc3C3CC3)cc2)c1 [Example 10] | – | 49.5 | –
5 | O=C(Cc1ccncc1)Nc1ccc(-n2nc(C(F)(F)F)cc2C2CC2)nc1 [Example 118, N-{6-[5-cyclopropyl-3-(trifluoromethyl)-1H-pyrazol-1-yl]pyridin-3-yl}-2-(pyridin-4-yl)acetamide hydrochloride] | – | 20.9 | –
6 | O=C(Cc1cccnc1)Nc1ccc(-n2nc(C(F)(F)F)cc2C2CC2)cc1 [Example 72, N-{4-[5-cyclopropyl-3-(trifluoromethyl)-1H-pyrazol-1-yl]phenyl}-2-(pyridin-3-yl)acetamide hydrochloride] | – | 100 | –
7 | O=C(Cc1ccccn1)Nc1ccc(-n2nc(C(F)(F)F)c(Cl)c2C2CC2)cc1 [Example 81, N-{4-[4-chloro-5-cyclopropyl-3-(trifluoromethyl)-1H-pyrazol-1-yl]phenyl}-2-(pyridin-2-yl)acetamide hydrochloride] | – | 56.1 | –
8 | O=C(Nc1ccc(-n2nc(C(F)(F)F)cc2C2CC2)cc1)c1c(F)cccc1F [Example 62, N-{4-[5-cyclopropyl-3-(trifluoromethyl)-1H-pyrazol-1-yl]phenyl}-2,6-difluorobenzamide] | – | 100 | –
9 | Cc1ncncc1C(=O)Nc1cc(F)c(-n2nc(C(F)(F)F)cc2C2CC2)c(F)c1 [Example 130, N-{4-[5-cyclopropyl-3-(trifluoromethyl)-1H-pyrazol-1-yl]-3,5-difluorophenyl}-4-methylpyrimidine-5-carboxamide] | – | 5.31 | –
10 | Cc1ncncc1C(=O)N(C)c1ccc(-n2nc(C(F)(F)F)cc2C2CC2)c(F)c1 [Example 94, N-{4-[5-cyclopropyl-3-(trifluoromethyl)-1H-pyrazol-1-yl]-3-fluorophenyl}-N,4-dimethylpyrimidine-5-carboxamide] | – | 45.4 | –
11 | Cc1ncncc1C(=O)Nc1ccc(-n2nc(C(F)(F)F)cc2C2CC2)nc1 [Example 116, N-{6-[5-cyclopropyl-3-(trifluoromethyl)-1H-pyrazol-1-yl]pyridin-3-yl}-4-methylpyrimidine-5-carboxamide] | – | 15.4 | –
12 | Cc1ncsc1C(=O)Nc1cnc(-n2nc(C(F)(F)F)cc2C2CC2)nc1 [Example 129, N-{2-[5-cyclopropyl-3-(trifluoromethyl)-1H-pyrazol-1-yl]pyrimidin-5-yl}-4-methyl thiazole-5-carboxamide] | – | 28.3 | –
13 | Cc1ncncc1C(=O)Nc1ccc(-n2nc(C3CC3)cc2C2CC2)nc1 [Example 51, N-[6-(3,5-dicyclopropyl-1H-pyrazol-1-yl)pyridin-3-yl]-4-methylpyrimidine-5-carboxamide hydrochloride] | – | 0 | –
14 | N-{4-[3-cyclopropyl-5-(difluoromethyl)-1H-pyrazol-1-yl]-3-fluorophenyl}-2,6-difluorobenzamide and N-{4-[5-cyclopropyl-3-(difluoromethyl)-1H-pyrazol-1-yl]-3-fluorophenyl}-2,6-difluorobenzamide [Example 135] | – | – | 100
15 | CSc1ccc(Cl)c(C(=O)Nc2ccc(-n3nc(C4CC4)cc3C3CC3)cc2)c1 [Example 12, 2-chloro-N-[4-(3,5-dicyclopropyl-1H-pyrazol-1-yl)phenyl]-5-(methylthio)benzamide] | – | 90.8 | –
16 | Cc1ncsc1NC(=O)Nc1ccc(-n2nc(C(F)(F)F)cc2C2CC2)cc1 [Example 76, 1-{4-[5-cyclopropyl-3-(trifluoromethyl)-1H-pyrazol-1-yl]phenyl}-3-(4-methylthiazol-5-yl)urea] | – | 92.3 | –
17 | Cn1ccnc1C(=O)Nc1ccc(-n2nc(C(F)(F)F)cc2C2CC2)cc1 [Example 58, N-{4-[5-cyclopropyl-3-(trifluoromethyl)-1H-pyrazol-1-yl]phenyl}-1-methyl-1H-imidazole-2-carboxamide] | – | 40.5 | –
18 | O=C(Nc1ccc(-n2nc(C3CC3)cc2C2CC2)cc1)c1c(F)cccc1F [Example 8, N-[4-(3,5-dicyclopropyl-1H-pyrazol-1-yl)phenyl]-2,6-difluorobenzamide] | – | 100 | –
19 | O=C(Cc1cccnc1)Nc1ccc(-n2nc(C3CC3)cc2C2CC2)cc1 [Example 23, N-[4-(3,5-dicyclopropyl-1H-pyrazol-1-yl)phenyl]-2-(pyridin-3-yl)acetamide hydrochloride] | – | 53.8 | –
20 | Cc1noc(C)c1C(=O)Nc1ccc(-n2nc(C3CC3)cc2C2CC2)cc1 [Example 5, N-[4-(3,5-dicyclopropyl-1H-pyrazol-1-yl)phenyl]-3,5-dimethylisoxazole-4-carboxamide] | – | 48.5 | –
21 | Cc1noc(C)c1C(=O)Nc1ccc(-n2nc(C3CC3)cc2C2CC2)c(F)c1 [Example 30, N-[4-(3,5-dicyclopropyl-1H-pyrazol-1-yl)-3-fluorophenyl]-3,5-dimethylisoxazole-4-carboxamide] | – | 35.1 | –
22 | O=C(Cc1ccncc1)Nc1ccc(-n2nc(C(F)(F)F)cc2C2CC2)cc1 [Example 73, N-{4-[5-cyclopropyl-3-(trifluoromethyl)-1H-pyrazol-1-yl]phenyl}-2-(pyridin-4-yl)acetamide hydrochloride] | – | 68 | –
23 | O=C(Nc1ccc(-n2nc(C3CC3)cc2C2CC2)nc1)c1ccncc1F [Example 48, N-[6-(3,5-dicyclopropyl-1H-pyrazol-1-yl)pyridin-3-yl]-3-fluoroisonicotinamide] | – | 12.3 | –
24 | Cc1nnsc1C(=O)Nc1ccc(-n2nc(C3CC3)c(Cl)c2C2CC2)c(F)c1 [Example 37, N-[4-(4-chloro-3,5-dicyclopropyl-1H-pyrazol-1-yl)-3-fluorophenyl]-4-methyl-1,2,3-thiadiazole-5-carboxamide] | – | 82.2 | –
25 | O=C(Nc1ccc(-n2nc(C(F)(F)F)cc2C2CC2)cc1)c1ccncc1F [Example 67, N-{4-[5-cyclopropyl-3-(trifluoromethyl)-1H-pyrazol-1-yl]phenyl}-3-fluoroisonicotinamide] | – | 100 | –
26 | Cc1ncsc1C(=O)Nc1ccc(-n2nc(C3CC3)cc2C2CC2)c(F)c1 [Example 29, N-[4-(3,5-dicyclopropyl-1H-pyrazol-1-yl)-3-fluorophenyl]-4-methylthiazole-5-carboxamide] | – | 100 | –
27 | Cc1ncsc1C(=O)Nc1ccc(-n2nc(C3CC3)cc2C2CC2)nc1 [Example 39, N-[6-(3,5-dicyclopropyl-1H-pyrazol-1-yl)pyridin-3-yl]-4-methylthiazole-5-carboxamide hydrochloride] | – | 41.3 | –
28 | O=C(Nc1ccc(-n2nc(C(F)(F)F)cc2C2CC2)c(F)c1)c1cccnc1 [Example 89, N-{4-[5-cyclopropyl-3-(trifluoromethyl)-1H-pyrazol-1-yl]-3-fluorophenyl}nicotinamide hydrochloride] | – | 100 | –
29 | O=C(CN1CCNCC1)Nc1ccc(-n2nc(C3CC3)cc2C2CC2)cc1 [Example 25, N-[4-(3,5-dicyclopropyl-1H-pyrazol-1-yl)phenyl]-2-(piperazin-1-yl)acetamide hydrochloride] | – | 29 | –
30 | CS(=O)(=O)c1ccc(Cl)c(C(=O)Nc2ccc(-n3nc(C4CC4)cc3C3CC3)cc2)c1 [Example 13, 2-chloro-N-[4-(3,5-dicyclopropyl-1H-pyrazol-1-yl)phenyl)-5-(methylsulfonyl)benzamide] | – | 37.2 | –
